Data published in patent publication US20150105252A1, “SUBSTITUTED PYRAZOLES AS HERBICIDES” (E I DU PONT DE NEMOURS AND COMPANY, priority 2013, published 2015).

What was measured:
foxtail, giant [1] = assay: Test A preemergence; format: in vivo, Setaria faberii; settings: preemergence; for Foxtail, Giant plant response rating (0 to 100 scale): 125 g ai/ha, visual injury approx. 10 days after treatment; for Foxtail, Giant plant response rating: 500 g ai/ha, visual injury after approx. 10 days, 0 to 100 scale (0 no effect, 100 complete control)
How it was run: (§1)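 Pre- and postemergence greenhouse test; loam+sand; cpd in non-phytotox. solvent/surfactant; post at 1–2 leaf, 2–10 cm; visual score ~10 d, 0 = none, 100 = complete control.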

foxtail, giant [2] = assay: Test A postemergence; format: in vivo, Setaria faberii
How it was run: as §1

morningglory [3] = assay: Test A preemergence; format: in vivo, Ipomoea spp.; settings: preemergence; for Morningglory plant response rating (0 to 100 scale): 125 g ai/ha, visual injury approx. 10 days after treatment
How it was run: as §1

crabgrass, large [4] = assay: Test A preemergence; format: in vivo, Digitaria sanguinalis; settings: preemergence; for Crabgrass, Large plant response rating (0 to 100 scale): 125 g ai/ha, visual injury approx. 10 days after treatment; for Crabgrass, Large plant response rating: 500 g ai/ha, visual injury after approx. 10 days, 0 to 100 scale (0 no effect, 100 complete control)
How it was run: as §1

ducksalad = assay: Test B flood; format: in vivo, Heteranthera limosa; settings: 250 g ai/ha, visual rating on 0 to 100 scale (0 no effect, 100 complete control), 13 to 15 days
How it was run: (§2)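 Two-leaf-stage plants, pots flooded (3 cm above soil) and treated through the water, which stayed at that depth. After 13–15 days in greenhouse conditions, visual assessment versus controls: 0 is no effect, 100 complete control, dash means no result.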

pigweed [5] = assay: Test A postemergence; format: in vivo, Amaranthus retroflexus; settings: Postemergence
How it was run: as §1

barnyardgrass [6] = assay: Test A preemergence; format: in vivo, Echinochloa crus-galli; settings: preemergence; for Barnyardgrass plant response rating (0 to 100 scale, 0 is no effect, 100 is complete control): 125 g ai/ha, visual injury approx. 10 days after treatment; for Barnyardgrass plant response rating: 500 g ai/ha, visual injury after approx. 10 days, 0 to 100 scale (0 no effect, 100 complete control)
How it was run: as §1

morningglory [7] = assay: Test A postemergence; format: in vivo, Ipomoea spp.; settings: Postemergence
How it was run: as §1

sedge, umbrella = assay: Test B flood; format: in vivo, Cyperus difformis; settings: 250 g ai/ha, visual rating on 0 to 100 scale (0 no effect, 100 complete control), 13 to 15 days
How it was run: as §2

velvetleaf [8] = assay: Test A postemergence; format: in vivo, Abutilon theophrasti; settings: Postemergence
How it was run: as §1

corn [9] = assay: Test A preemergence; format: in vivo, Zea mays; settings: preemergence; for Corn plant response rating (0 to 100 scale): 125 g ai/ha, visual injury approx. 10 days after treatment; for Corn plant response rating: 500 g ai/ha, visual injury after approx. 10 days, 0 to 100 scale (0 no effect, 100 complete control)
How it was run: as §1

barnyardgrass [10] = assay: Test B flood; format: in vivo, Echinochloa crus-galli; settings: 250 g ai/ha, visual rating on 0 to 100 scale (0 no effect, 100 complete control), 13 to 15 days
How it was run: as §2

barnyardgrass [11] = assay: Test A postemergence; format: in vivo, Echinochloa crus-galli
How it was run: as §1

velvetleaf [12] = assay: Test A preemergence; format: in vivo, Abutilon theophrasti; settings: preemergence; for Velvetleaf plant response rating (0 to 100 scale): 125 g ai/ha, visual injury approx. 10 days after treatment
How it was run: as §1

rice = assay: Test B flood; format: in vivo, Oryza sativa; settings: 250 g ai/ha, visual rating on 0 to 100 scale (0 no effect, 100 complete control), 13 to 15 days
How it was run: as §2

wheat [13] = assay: Test A postemergence; format: in vivo, Triticum aestivum; settings: Postemergence
How it was run: as §1

corn [14] = assay: Test A postemergence; format: in vivo, Zea mays
How it was run: as §1

pigweed [15] = assay: Test A preemergence; format: in vivo, Amaranthus retroflexus; settings: preemergence; for Pigweed plant response rating (0 to 100 scale): 125 g ai/ha, visual injury approx. 10 days after treatment
How it was run: as §1

wheat [16] = assay: Test A preemergence; format: in vivo, Triticum aestivum; settings: preemergence; for Wheat plant response rating (0 to 100 scale): 125 g ai/ha, visual injury approx. 10 days after treatment
How it was run: as §1

crabgrass, large [17] = assay: Test A postemergence; format: in vivo, Digitaria sanguinalis
How it was run: as §1

[18] = Postemergence, 500 g ai/ha, 0 to 100 scale (0 no effect, 100 complete control)
[19] = postemergence, 125 g ai/ha, about 10 days, visual rating on 0 to 100 scale (0 no effect, 100 complete control)
[20] = 500 g ai/ha, visual injury after approx. 10 days, 0 to 100 scale (0 no effect, 100 complete control)
[21] = 125 g ai/ha, 0 to 100 scale, 0 no effect, 100 complete control
[22] = 500 g ai/ha, 0 to 100 scale (0 no effect, 100 complete control)
[23] = Postemergence, 125 g ai/ha, 0 to 100 scale, 0 no effect, 100 complete control

| SMILES | Foxtail, Giant plant response rating (0 to 100 scale) (foxtail, giant [1]) | Foxtail, Giant plant response rating (foxtail, giant [1]) | Foxtail, Giant plant response rating (foxtail, giant [2]; [18]) | Morningglory plant response rating (0 to 100 scale) (morningglory [3]) | Crabgrass, Large plant response rating (0 to 100 scale) (crabgrass, large [4]) | Crabgrass, Large plant response rating (crabgrass, large [4]) | Plant response rating, Ducksalad (ducksalad) | Pigweed plant response rating (pigweed [5]; [21]) | Pigweed plant response rating (pigweed [5]; [22]) | Barnyardgrass plant response rating (0 to 100 scale, 0 is no effect, 100 is complete control) (barnyardgrass [6]) | Barnyardgrass plant response rating (barnyardgrass [6]) | Morningglory plant response rating (morningglory [7]; [21]) | Morningglory plant response rating (morningglory [7]; [22]) | Plant response rating, Sedge, Umbrella (sedge, umbrella) | Velvetleaf plant response rating (velvetleaf [8]; [21]) | Velvetleaf plant response rating (velvetleaf [8]; [22]) | Corn plant response rating (0 to 100 scale) (corn [9]) | Corn plant response rating (corn [9]) | Plant response rating, Barnyardgrass (barnyardgrass [10]) | Barnyardgrass plant response rating (barnyardgrass [11]; [18]) | also measured |
| --- | --- | --- | --- | --- | --- | --- | --- | --- | --- | --- | --- | --- | --- | --- | --- | --- | --- | --- | --- | --- | --- |
| CCc1cc(C(=O)NN(C)C)nn1Cc1ccnc(C(F)(F)F)c1 [Compound 192] | 0 | 0 | 30 | 0 | 0 | 10 | 0 | 80 | 90 | 0 | 0 | 30 | 90 | 0 | 50 | 80 | 0 | 0 | 0 | 30 | Foxtail, Giant plant response rating (foxtail, giant [2]; [19]): 10; Morningglory plant response rating (morningglory [3]; [20]): 10; Barnyardgrass plant response rating (barnyardgrass [11]; [19]): 10; Velvetleaf plant response rating (0 to 100 scale) (velvetleaf [12]): 0; Velvetleaf plant response rating (velvetleaf [12]; [20]): 0; Plant response rating, Rice (rice): 0; Wheat plant response rating (wheat [13]; [21]): 0; Wheat plant response rating (wheat [13]; [22]): 10; Corn plant response rating (corn [14]; [18]): 50; Corn plant response rating (corn [14]; [19]): 20; Pigweed plant response rating (0 to 100 scale) (pigweed [15]): 0; Pigweed plant response rating (pigweed [15]; [20]): 0; Wheat plant response rating (0 to 100 scale) (wheat [16]): 0; Wheat plant response rating (wheat [16]; [20]): 0; Crabgrass, Large plant response rating (crabgrass, large [17]; [18]): 20; Crabgrass, Large plant response rating (crabgrass, large [17]; [19]): 10 |
| CCc1cc(C(=O)NC2CC2)nn1Oc1cccc(C(F)(F)F)c1 [Compound 215] | 10 | 70 | 70 | 0 | 50 | 100 | 30 | 40 | 90 | 0 | 60 | 30 | 100 | 20 | 10 | 60 | 0 | 0 | 0 | 40 | Foxtail, Giant plant response rating (foxtail, giant [2]; [23]): 10; Barnyardgrass plant response rating (barnyardgrass [11]; [23]): 10; Velvetleaf plant response rating (0 to 100 scale) (velvetleaf [12]): 0; Plant response rating, Rice (rice): 10; Wheat plant response rating (wheat [13]; [21]): 0; Wheat plant response rating (wheat [13]; [22]): 10; Corn plant response rating (corn [14]; [23]): 10; Corn plant response rating (corn [14]; [18]): 20; Pigweed plant response rating (0 to 100 scale) (pigweed [15]): 10; Wheat plant response rating (0 to 100 scale) (wheat [16]): 0; Crabgrass, Large plant response rating (crabgrass, large [17]; [23]): 10; Crabgrass, Large plant response rating (crabgrass, large [17]; [18]): 60 |
| CCc1cc(C(=O)NCC(F)(F)F)nn1Oc1cccc(OC(F)(F)F)c1 [Compound 221] | 0 | 40 | 30 | 0 | 10 | 90 | 0 | 20 | 60 | 0 | 10 | 30 | 80 | 0 | 0 | 20 | 0 | 0 | 0 | 10 | Foxtail, Giant plant response rating (foxtail, giant [2]; [23]): 10; Barnyardgrass plant response rating (barnyardgrass [11]; [23]): 10; Velvetleaf plant response rating (0 to 100 scale) (velvetleaf [12]): 0; Plant response rating, Rice (rice): 0; Wheat plant response rating (wheat [13]; [21]): 0; Wheat plant response rating (wheat [13]; [22]): 10; Corn plant response rating (corn [14]; [23]): 10; Corn plant response rating (corn [14]; [18]): 20; Pigweed plant response rating (0 to 100 scale) (pigweed [15]): 0; Wheat plant response rating (0 to 100 scale) (wheat [16]): 0; Crabgrass, Large plant response rating (crabgrass, large [17]; [23]): 10; Crabgrass, Large plant response rating (crabgrass, large [17]; [18]): 30 |
| CCc1cc(C(=O)NC2CC2)nn1Oc1cccc(OC(F)(F)F)c1 [Compound 222] | 0 | 80 | 70 | 0 | 80 | 100 | 55 | 30 | 100 | 0 | 90 | 30 | 50 | 65 | 30 | 50 | 0 | 0 | 0 | 80 | Foxtail, Giant plant response rating (foxtail, giant [2]; [23]): 20; Barnyardgrass plant response rating (barnyardgrass [11]; [23]): 80; Velvetleaf plant response rating (0 to 100 scale) (velvetleaf [12]): 0; Plant response rating, Rice (rice): 15; Wheat plant response rating (wheat [13]; [21]): 0; Wheat plant response rating (wheat [13]; [22]): 20; Corn plant response rating (corn [14]; [23]): 0; Corn plant response rating (corn [14]; [18]): 60; Pigweed plant response rating (0 to 100 scale) (pigweed [15]): 20; Wheat plant response rating (0 to 100 scale) (wheat [16]): 0; Crabgrass, Large plant response rating (crabgrass, large [17]; [23]): 40; Crabgrass, Large plant response rating (crabgrass, large [17]; [18]): 90 |
| CCNC(=O)c1cc(CC)n(Oc2cccc(OC(F)(F)F)c2)n1 [Compound 223] | 0 | 20 | 30 | 0 | 20 | 90 | 25 | 20 | 60 | 0 | 40 | 0 | 30 | 65 | 0 | 30 | 0 | 0 | 0 | 50 | Foxtail, Giant plant response rating (foxtail, giant [2]; [23]): 0; Barnyardgrass plant response rating (barnyardgrass [11]; [23]): 0; Velvetleaf plant response rating (0 to 100 scale) (velvetleaf [12]): 0; Plant response rating, Rice (rice): 25; Wheat plant response rating (wheat [13]; [21]): 0; Wheat plant response rating (wheat [13]; [22]): 10; Corn plant response rating (corn [14]; [23]): 0; Corn plant response rating (corn [14]; [18]): 30; Pigweed plant response rating (0 to 100 scale) (pigweed [15]): 0; Wheat plant response rating (0 to 100 scale) (wheat [16]): 0; Crabgrass, Large plant response rating (crabgrass, large [17]; [23]): 20; Crabgrass, Large plant response rating (crabgrass, large [17]; [18]): 70 |
